From patent US20140194559A1, “Novel Inhibitor Compositions and Methods of Use” (NuFarm UK Limited, priority 2011, published 2014)

Legend:
[1] = hazard classification; cited from earlier work
[2] = Solubility of antipolymerants in ethylbenzene; assay type: physicochemical; settings: solvent ethylbenzene
Text: (§1) In order to highlight the increased antipolymerant content that can be achieved, the solubility of three antipolymerants in ethylbenzene, a widely used solvent for supplying antipolymerants for styrene monomer production, is compared with concentration when the antipolymerant is supplied as a SC. The comparative data for the antipolymerants are set out in Table 1.
Thus, it is clear that, for all three active components, the concentration achieved in the SC is far greater than that observed in ethylbenzene. The same concentration could also be obtained when two of the active components were combined in the SC. By contrast, combining more than one of the actives in ethylbenzene, the total concentration of actives was reduced. Thus, for a combination of 2,5-di-tert-butyl-p-benzoquinone and dibenzylhydroxylamine, the total concentration in ethylbenzene was <10 w/w %.

[3] = Maximum concentration of actives in suspension concentrate (SC); assay type: physicochemical; settings: for Concentration in SC: maximum concentration of active in suspension concentrate
Procedure: To the liquid carrier (approximately 80% of the required amount) is added the required quantity of the dispersing agent and the mixture is stirred until a fully homogeneous solution is formed. Under high shear conditions, the desired amount of active inhibitor component is added to the dispersant solution and the formulation is stirred until it becomes completely homogeneous. The resulting dispersed active inhibitor is transferred to a bead mill where it is continuously milled until the required particle size distribution is obtained. Desirably, the particle size is less than 10 microns. Under additional stirring, the remaining liquid carrier, optionally a preservative agent and optionally a thickening agent are added to the milled formulation until a homogeneous suspension concentrate is formed. The required quantities of the components of the formulation are in each case determined with reference to the scale of the process which is being conducted.
as §1
(§2) This effect is further illustrated by reference to a further example wherein a stable suspension concentrate of phenothiazine (PTZ), containing 40 percent by weight of the PTZ component, was easily obtained using the above methodology. PTZ is a widely used inhibitor in (meth)acrylic acid and ester processes, but has low solubility in most solvents that are compatible with such processes. In most industrial cases, PTZ is supplied in its solid form and dissolved in the monomer to form a dilute solution for dosing into the monomer purification process. Thus, for example, in laboratory tests, PTZ had the following solubilities: acrylic acid (2.6 w/w %), methacrylic acid (2.4 w/w %), n-butyl acrylate (9.7 w/w %), methyl methacrylate (8.4 w/w %).

[4] = Batch tests: polymer content in refluxing styrene monomer; settings: for Effect: batch test, styrene, 120° C., inhibitor or retarder
Procedure: The particular ethylenically unsaturated compound used in the tests was a vinyl aromatic monomer, specifically styrene monomer. The use of a vinyl aromatic monomer for this purpose is illustrative and is not intended to exclude other ethylenically unsaturated compounds from the scope of this invention.
Batch tests (the results of which are detailed in Table 2), and continuous flow tests were carried out in order to represent different types of processing conditions which can occur in the industrial processing of ethylenically unsaturated compounds. These tests compare the compositions of the present invention with compositions of the prior art.
The batch test was designed in order to show whether a test composition is an inhibitor or a retarder. The tests were carried out in styrene monomer refluxing under reduced pressure at 120° C. in order to reduce the presence of atmospheric oxygen to such low levels as can be expected in a commercial styrene monomer purification plant.
For the batch tests the vinyl aromatic monomer composition containing the test substances was heated to 120° C. and stirred under reduced pressure so that it refluxed at the test temperature. Samples were taken at intervals of time and tested for polymer content in order to assess the effectiveness of polymerisation control.

[5] = Acrylic acid tube test (inhibition period); settings: 25 ppm inhibitor, lean air (5% oxygen in nitrogen), 120° C., until first white precipitate
Procedure: In a typical test, a series of tubes containing acrylic acid and inhibitor was sparged with a lean air mixture (5% oxygen in nitrogen). These tubes were then heated at 120° C. until the first signs of polymerisation were detected (by means of the formation of white precipitate), and this was determined as the inhibition period.

[6] = Laboratory solubility tests of PTZ in monomers; assay type: physicochemical
Text: as §2

SMILES	Dermal Toxicity [1]	Oral Toxicity [1]	Toxic by Inhalation [1]	Solubility in ethylbenzene [2]	Concentration in SC [3]	also measured
CC(C)(C)C1=CC(=O)C(C(C)(C)C)=CC1=O [BQ, 2,5-di-tert-butyl-p-benzoquinone]	No	No	No	11.9 w/w %	45.0 w/w %	
ON(Cc1ccccc1)Cc1ccccc1 [DBHA, N,N-dibenzyl hydroxylamine]	No	No	No	1.6 w/w %	45.0 w/w %	
CCC(C)c1cc([N+](=O)[O-])cc([N+](=O)[O-])c1O (stereo not shown) [DNBP, 4,6-Dinitro-2-sec-butyl phenol]	Yes					Effect [4]: retarder; Effect ([4]; listed as Control 1): Retarder; Polymer (ppm) @ (time) 180 mins ([4]; styrene refluxing under reduced pressure at 120° C., 180 mins, component doses in ppm as in table): 4000 ppm
CC(C)(C)c1cc(O)c(C(C)(C)C)cc1O [HQ, 2,5-di-tert-butyl hydroquinone]				6.7 w/w %	45.0 w/w %	
c1ccc2c(c1)Nc1ccccc1S2 [PTZ, phenothiazine]						Inhibition Period [5]: 531 min; solubility in acrylic acid ([6]; acrylic acid): 2.6 w/w %; solubility in methacrylic acid ([6]; methacrylic acid): 2.4 w/w %; solubility in methyl methacrylate ([6]; methyl methacrylate): 8.4 w/w %; solubility in n-butyl acrylate ([6]; n-butyl acrylate): 9.7 w/w %; PTZ content of stable suspension concentrate ([3]; stable suspension concentrate): 40 percent by weight
